“Also recorded” adds a separate entry of the source.
Assay: fluorescence emission spectrum of encapsulated versus free substance (integrity after encapsulation)
Type: physicochemical
Conditions: encapsulated vs free state
From the text: Both images have been obtained using an AxioObserver Z1M (Zeiss Microscope) optical microscope.
The scanning and fluorescence images have been taken using a Hitachi S-570 scanning microscope and an AxioObserver Z1M (Zeiss 25 Microscope) optical microscope, respectively. The fluorescence intensities have been obtained using an Applied Photophysics fluorometer with a Quantel pulsed laser.

SMILES: COc1cccc2c1C(=O)c1c(O)c3c(c(O)c1C2=O)C[C@@](O)(C(=O)CO)C[C@@H]3O[C@H]1C[C@H](N)[C@H](O)[C@H](C)O1 [doxorubicin]
- modification or degradation during the encapsulation process: has not been modified; also recorded: has not been modified or degraded
